Results reported in the Kinase Knowledgebase extract (Sharma et al. 2016).

biological target: CDK2 (human) (UniProt P24941); assay: Enzyme Assay

SMILES	IC50
OCCn1ccc2c(-c3ccnc(Nc4cccc(Cl)c4)n3)cccc21	< 5 µM
OCCCn1ccc2c(-c3ccnc(Nc4cccc(Cl)c4)n3)cccc21	< 5 µM
COc1cnc(Nc2cccc(S(N)(=O)=O)c2)nc1-c1cccc2[nH]ccc12	< 5 µM
O=C(Cn1ccc2c(-c3ccnc(Nc4cccc(Cl)c4)n3)cccc21)NCC1CCCN1 (stereo unspecified)	< 5 µM
CC(C)(C)NC(=O)Cn1ccc2c(-c3ccnc(Nc4cccc(Cl)c4)n3)cccc21	< 5 µM
CNC(=O)Cn1ccc2c(-c3ccnc(Nc4cccc(Cl)c4)n3)cccc21	< 5 µM
CN(C)CCCn1ccc2c(-c3ccnc(Nc4cccc(Cl)c4)n3)cccc21	< 5 µM
Cc1cnc(Nc2cccc(S(C)(=O)=O)c2)nc1-c1cccc2[nH]ccc12	< 5 µM
Cc1cnc(Nc2cccc(S(N)(=O)=O)c2)nc1-c1cccc2[nH]ccc12	< 5 µM
CN(C)CCn1ccc2c(-c3ccnc(Nc4cccc(Cl)c4)n3)cccc21	< 5 µM
Cn1ccc2c(-c3ccnc(Nc4cccc(Cl)c4)n3)cccc21	< 5 µM
CN(C)C(=O)Cn1ccc2c(-c3ccnc(Nc4cccc(Cl)c4)n3)cccc21	< 5 µM
CS(=O)(=O)c1cccc(Nc2nccc(-c3cccc4[nH]ccc34)n2)c1	< 5 µM
Cc1ccc2[nH]ccc2c1-c1ccnc(Nc2cccc(S(C)(=O)=O)c2)n1	< 5 µM
O=C(Cn1ccc2c(-c3ccnc(Nc4cccc(Cl)c4)n3)cccc21)NCCO	< 5 µM
NS(=O)(=O)c1cccc(Nc2ncc(F)c(-c3cccc4[nH]ccc34)n2)c1	< 5 µM
